Reference: patent US20210122763A1, “OGA INHIBITOR COMPOUNDS” (Janssen Pharmaceutica NV, priority 2018, published 2021)

Target: T1, recombinant human Meningioma Expressed Antigen 5 (MGEA5), also referred to as O-GlcNAcase (OGA) (Homo sapiens, UniProt O60502)
T1 construct: Full length OGA enzyme was purchased at OriGene (cat #TP322411); purchased OriGene TP322411
T1 sequence (O60502 1-916): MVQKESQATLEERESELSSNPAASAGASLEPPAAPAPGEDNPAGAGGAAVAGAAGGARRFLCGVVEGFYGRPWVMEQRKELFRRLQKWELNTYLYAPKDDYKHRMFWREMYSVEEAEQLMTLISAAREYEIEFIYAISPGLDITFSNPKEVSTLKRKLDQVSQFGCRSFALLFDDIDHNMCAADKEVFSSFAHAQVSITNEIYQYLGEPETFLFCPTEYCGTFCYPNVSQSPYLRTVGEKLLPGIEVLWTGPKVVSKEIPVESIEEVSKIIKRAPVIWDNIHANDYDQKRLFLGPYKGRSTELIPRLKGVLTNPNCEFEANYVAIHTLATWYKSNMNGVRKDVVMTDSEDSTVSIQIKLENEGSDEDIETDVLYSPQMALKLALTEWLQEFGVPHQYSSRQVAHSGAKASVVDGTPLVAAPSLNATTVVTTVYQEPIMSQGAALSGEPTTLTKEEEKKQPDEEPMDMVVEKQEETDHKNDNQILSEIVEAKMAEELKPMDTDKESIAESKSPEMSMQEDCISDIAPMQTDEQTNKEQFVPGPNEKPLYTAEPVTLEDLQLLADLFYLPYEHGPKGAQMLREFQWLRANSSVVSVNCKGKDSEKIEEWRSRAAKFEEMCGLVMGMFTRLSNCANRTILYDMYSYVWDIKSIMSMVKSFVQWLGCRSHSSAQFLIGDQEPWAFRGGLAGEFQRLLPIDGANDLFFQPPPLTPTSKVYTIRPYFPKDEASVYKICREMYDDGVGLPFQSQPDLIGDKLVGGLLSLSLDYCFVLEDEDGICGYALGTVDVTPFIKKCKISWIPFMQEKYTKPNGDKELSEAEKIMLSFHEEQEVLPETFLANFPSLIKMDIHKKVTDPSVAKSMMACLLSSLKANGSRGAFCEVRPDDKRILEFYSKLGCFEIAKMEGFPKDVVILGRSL
Assay: OGA biochemical assay (inhibition of FM-GlcNAc hydrolysis, fluorescence)
Settings: for Emax: read-out: Enzymatic Emax (%); for IC50: read-out: Enzymatic hOGA, pIC50 (converted)
In short: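 Full-length OGA at 2 nM was pre-incubated 60 min at room temperature with compound, then FM-GlcNAc at 100 uM final was added in citrate/phosphate buffer pH 7.2 with 0.005% Tween-20. After 6 h at room temperature, carbonate pH 11.0 stopped the reaction. Fluorescence read at 485/538 nm; IC50 and Hill coefficient from curve fit against no-inhibitor and saturating-standard controls.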

| Emax [%] | IC50 [nM] | SMILES |
| --- | --- | --- |
| 101 | 5.01 | Cc1cc(OC2CCN([C@@H](C)c3nc4nc(C)sc4cc3F)CC2)cc(C)n1 (single isomer, unassigned) [Compound 83] |
| 97 | 3.16 | Cc1cc(OC2CCN([C@H](C)c3nc4c(cc3F)CCO4)CC2)cc(C)n1 (single isomer, unassigned) [Compound 144] |
| 98 | 6.31 | Cc1cc(OC2CCN([C@H](C)c3nc4c(cc3F)OCCO4)CC2)cc(C)n1 (single isomer, unassigned) [Compound 148] |
| 96 | 5.01 | Cc1ncc(OC2CCN(C(C)c3nc4c(cc3F)CCO4)CC2)cn1 (centres unmarked) [Compound 95] |
